Measured values published in patent EP2698384A1, “Detection of synthetic cannabinoids” (priority 2012, dated 2014).
Like-named read-outs stand apart in the source and are kept apart here.

Experiments:
Assay type in all cases: binding, sheep
Antibody to Immunogen VI = conditions: Cross-reactants at 100 ng/ml; 1000ng/ml; single level of cross reactants
How it was run: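 Plates coated with IgG from anti-Immunogen VI antiserum; RCS-4 standards (0–20 ng/ml) compete with hapten-HRP conjugate for 1 h at 25°C. TMB read at 450 nm, 4-parameter fit; IC50 at half the zero-standard OD. Cross-reactivity from single-level cross-reactant solutions against calibration curves.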

Antibody to Immunogen V = conditions: Cross-reactants at 100 ng/ml; 1000ng/ml; single level of cross reactants
How it was run: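 Plates coated with anti-Immunogen V IgG; RCS-8 standards (0–80 ng/ml in TBST) compete with hapten-HRP conjugate 1 h at 25°C, TMB readout at 450 nm. IC50 from 4-parameter fit as concentration at half the zero-standard OD; cross-reactivity from single-level cross-reactant versus calibration curve.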

[1] = test system: Antibody to Immunogen III
How it was run: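 Plates were coated with IgG from antiserum to Immunogen III, and JWH-250 standards (0–40 ng/ml) competed with hapten-HRP conjugate for 1 h at 25°C. Detection used TMB with A450. IC50 is the concentration giving half the 0 ng/ml OD on a 4-parameter fit, and cross-reactivity was taken from calibration curves using a single level of each cross-reactant.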

[2] = Cross-reactants at 100 ng/ml, 1000ng/ml, single level of cross reactants

Molecule | %B/B0 (Antibody to Immunogen VI) | %B/B0 (Antibody to Immunogen V) | %B/B0 [1, 2] | further results
O=C(c1cccc2ccccc12)c1cn(CCN2CCOCC2)c2ccccc12 [WIN 55,225 (other name JWH-200)] | 71.03% | 49.45% | 88.39% | 
CCCCCn1cc(C(=O)c2ccc(CC)c3ccccc23)c2ccccc21 [JWH-210] | 72.07% | 70.20% | 69.64% | 
CCc1ccc(C(=O)c2cn(CCCCCC(=O)O)c3ccccc23)c2ccccc12 [JWH-210 N-(5-carboxypentyl) metabo lite] | 63.50% | 70.77% | 94.24% | 
CCCCn1cc(C(=O)c2cccc3ccccc23)c2ccc(O)cc21 | 84.50% | 68.70% | 94.60% | 
CCCCCn1cc(C(=O)c2cccc3ccccc23)c2ccccc21 [JWH-018] | 82.47% | 78.01% | 78.39% | 
(+)-CP 55,940 | 94.76% | 74.18% | 92.49% | 
COc1ccc(C(=O)c2cn(CCCC(C)O)c3ccccc23)cc1 (centres unmarked) [RCS-4 N-(4-hydroxypentyl) metabolite] | 5.69% | 71.93% | 66.40% | 
CCCCCn1cc(C(=O)Cc2ccccc2OC)c2ccccc21 [JWH-250, 2-(2-methoxyphenyl)-1-(1-pentyl-1H-indol-3-yl)ethanone] | 82.17% | 8.74% | 11.91% | IC50 ([1]; standard JWH-250, standard concentration which produces 50% B/B0): 3.850 ng/mL; %B/B0 ([1]; standard curve, JWH-250 1 ng/ml (first row printed 1)): 84%; %B/B0 ([1]; standard curve, JWH-250 1 ng/ml (second row printed 1)): 70%; %B/B0 ([1]; standard curve, JWH-250 3 ng/ml): 59%; %B/B0 ([1]; standard curve, JWH-250 5 ng/ml): 43%; %B/B0 ([1]; standard curve, JWH-250 10 ng/ml): 38%; %B/B0 ([1]; standard curve, JWH-250 20 ng/ml): 29%; %B/B0 ([1]; standard curve, JWH-250 40 ng/ml): 23%
COc1ccc(C(=O)c2c(C)n(CCN3CCOCC3)c3ccccc23)cc1 [WIN-48,098 (other name Pravadoline), Pravadoline] | 23.84% | 77.87% | 89.21% | 
(-)-CP 55,940 | 94.76% | 91.41% | 90.16% | 
CCCCCn1cc(C(=O)c2ccc(CC)c3ccccc23)c2cc(O)ccc21 [JWH-210 5-hydroxyindole metabolite] | 86.92% | 79.94% | 87.01% | 
O=C(O)Cc1c[nH]c2ccc(O)cc12 [5-hydroxyindole-3-acetic acid (5-HIAA), 5-hydroxyindole-3-acetic acid] | 95.75% | 92.46% | 90.54% | 
CCCCn1cc(C(=O)c2cccc3ccccc23)c2cc(O)ccc21 | 85.96% | 82.86% | 95.65% | 
